Test results as given in paper PMC11545984, “1,3-Dipolar Cycloaddition of Nitrile Oxides and Nitrilimines to (−)-β-Caryophyllene: Stereoselective Synthesis of Polycyclic Derivatives and Their Biological Testing” (International Journal of Molecular Sciences, 2024).
Where two headings read alike, the source gives them in different places. Marks after values point to notes of the source that are not given here.

Legend:
[1] = test system: influenza virus A/Puerto Rico/8/34 (H1N1); assay: Antiviral (cytoprotective) activity in MDCK cells, MTT; format: cell-based
[2] = test system: DU145; assay: Initial cytotoxicity testing (MTT test), DU145; format: cell-based, human; conditions: for IC50: Homo sapiens, DU-145, 72 h, read-out: cytotoxicity DU145; for cytotoxicity DU145: human cancer cell line, MTT, 72 h, two concentrations 50–100 µM
Description: (§1) Colon cancer (HCT116, HT29), breast cancer (MCF7, SKBR3), melanoma (SK-MEL28), lung cancer (A549), prostate cancer (DU145), human normal cells (VA-13 and HEK293), and murine mammary cell lines (EMT6) were purchased from ATCC (Manassas, VA, USA). Cells were routinely grown in RPMI 1640 culture medium, supplemented with 10% fetal bovine serum, glutamine, and 100 U/mL penicillin. HCT116, HT29, MCF7, SKBR3, SK-MEL28, A549, DU145, VA-13, HEK293, and EMT6 cells were grown in flasks in RPMI 1640 fresh culture medium with supplements at 37 °C and 5% CO2. Cells were grown as monolayer cultures, and the cells in the exponential growth phase were trypsinized and suspended in the supplemented RPMI 1640 medium.
(§2) To evaluate the cytotoxicity of the compounds, we placed cells in (20–30) × 10^3 cells/mL concentrations in 96-well culture plates for 24 h. Cells were counted after treatment with Trypan blue solution (0.4%). They were then exposed to two different concentrations of compounds 16–30 (50–100 µM) dilutions in pre-incubated cells at 37 °C for 72 h. In control wells with untreated cells, only (DMSO + PBS) was added. Cell viability was measured by the standard MTT test. The stock solutions of each compound were prepared in DMSO following by preparation of serial dilutions in PBS.
(§3) The absorbance was measured at 540 nm using a Multiskan™ FC microplate photometer and the Skanlt software 6.1 RE for microplate reader, both from Thermo Scientific (Waltham, MA, USA). Experiments were carried out in triplicate; to perform the statistical analysis, more concentrations should be evaluated.

[3] = test system: A549; assay: Initial cytotoxicity testing (MTT test), A549; format: cell-based, human; conditions: for IC50: Homo sapiens, A549, 72 h, read-out: cytotoxicity A549; for cytotoxicity A549: human cancer cell line, MTT, 72 h, two concentrations 50–100 µM
Description: as §1, §2, §3

[4] = Initial cytotoxicity testing (MTT test), VA-13; format: cell-based, human; conditions: human healthy cells, MTT, 72 h, two concentrations 50–100 µM
Description: as §1, §2, §3

[5] = Initial cytotoxicity testing (MTT test), HEK293; format: cell-based, human; conditions: human healthy cells, MTT, 72 h, two concentrations 50–100 µM
Description: as §1, §2, §3

[6] = test system: DU145, A549, VA-13, HEK293, EMT6; assay: Initial cytotoxicity testing (MTT test), all cell lines together; format: cell-based; conditions: for IC50: after 72 h, read-out: IC50 on all cells
Description: as §1, §2, §3

[7] = in vitro; conditions: dog
[8] = test system: MDCK cells; assay: Cytotoxicity in MDCK cells (MTT, CC50); conditions: uninfected MDCK cells, 48 h
[9] = test system: influenza virus A/Puerto Rico/8/34 (H1N1); assay: Time-of-addition experiment in MDCK cells; format: cell-based; conditions: m.o.i. 10, addition from -2 h to 6 hpi
[10] = test system: HCT116; assay: IC50 determination (MTT test), HCT116; format: cell-based, human; conditions: 72 h; for IC50: Homo sapiens, HCT-116, colon cancer; for IC50 HCT116: colon cancer
Description: as §1
(§4) To evaluate the cytotoxicity of the SDE-series in vitro, we placed cells in (15–30) × 10^3 cells/mL concentrations in 96-well culture plates for 24 h. Cells were counted after treatment with Trypan blue solution (0.4%). After 24 h, the cells were exposed to six tested concentrations of SDE-series (50–1.5 µM) dilutions to pre-incubated cells at 37 °C for 72 h. In control wells with untreated cells, only (DMSO + PBS) was added. Cell viability was measured by the standard MTT test. The absorbance was measured at 540 nm using a Multiskan™ FC microplate photometer and the Skanlt software 6.1 RE for microplate reader, both from Thermo Scientific (Waltham, MA, USA). In vitro experiments were carried out in triplicate. GraphPad prism version 9.0 was used to determine the IC50. The IC50 data are presented as mean (±) standard deviation (SD).

[11] = test system: HT-29; assay: IC50 determination (MTT test), HT-29; format: cell-based; conditions: Homo sapiens, colon cancer, 72 h
Description: as §1, §4

[12] = test system: MCF7; assay: IC50 determination (MTT test), MCF7; format: cell-based; conditions: Homo sapiens, breast cancer, 72 h
Description: as §1, §4

[13] = test system: SKBR3; assay: IC50 determination (MTT test), SKBR3; format: cell-based; conditions: Homo sapiens, SK-BR-3, breast cancer, 72 h
Description: as §1, §4

[14] = test system: SK-MEL-28; assay: IC50 determination (MTT test), SK-MEL-28; format: cell-based, human; conditions: 72 h; for IC50: Homo sapiens, SK-MEL-28, melanoma; for IC50 SK-MEL-28: melanoma
Description: as §1, §4

[15] = test system: A549; assay: IC50 determination (MTT test), A549; format: cell-based; conditions: Homo sapiens, lung cancer, 72 h
Description: as §1, §4

[16] = test system: DU145; assay: IC50 determination (MTT test), DU145; format: cell-based; conditions: Homo sapiens, DU-145, prostate cancer, 72 h
Description: as §1, §4

[17] = test system: HEK-293; assay: IC50 determination (MTT test), HEK-293; format: cell-based; conditions: Homo sapiens, HEK293, normal cells, 72 h
Description: as §1, §4

[18] = test system: EMT6; assay: Initial cytotoxicity testing (MTT test), EMT6; format: cell-based, murine; conditions: for cytotoxicity EMT6: murine mammary cell line, MTT, 72 h, two concentrations 50–100 µM
Description: as §1, §2, §3

[19] = test system: VA-13; assay: Initial cytotoxicity testing (MTT test), VA-13; format: cell-based, human; conditions: human healthy cells, MTT, 72 h, two concentrations 50–100 µM
Description: as §1, §2, §3

[20] = test system: HEK293; assay: Initial cytotoxicity testing (MTT test), HEK293; format: cell-based, human; conditions: human healthy cells, MTT, 72 h, two concentrations 50–100 µM
Description: as §1, §2, §3

[21] = test system: a variety of cancer cell lines; assay: IC50 determination (MTT test), variety of cancer cell lines; format: cell-based; conditions: Homo sapiens, 72 h, read-out: IC50 range on a variety of cancer cell lines
Description: as §1
as §4, with “In vitro experiments were carried out in triplicate. GraphPad prism version 9.0 was used to determine the IC50. The IC50 data are presented as mean (±) standard deviation (SD).” left out

[22] = H1N1, infected MDCK cells, m.o.i. 0.01, 48 h, 50% cell protection, read-out: IC50

C=C1CC[C@@H]2C(c3ccc(OC)cc3)=NO[C@@]2(C)CC[C@@H]2[C@@H]1CC2(C)C [Compound 17b, (3aR,6aS,8aR,10aS)-3-(4-methoxyphenyl)-8,8,10a-trimethyl-6-methylene-3a,5,6,6a,7,8,8a,9,10,10a-decahydro-4H-cyclobuta [5,6]cyclonona [1,2-d]isoxazole]
IC50 [1, 22]: > 12.8 µM
IC50 [2]: < 50 µM
IC50 [3]: < 50 µM
IC50 at 72 h [4]: < 50 µM
IC50 at 72 h [5]: < 50 µM
IC50 [6]: < 50 µM
CC50 at 48 h [7]: 27 ± 2.4 µM

NC12CC3CC(CC(C3)C1)C2 [Amantadine, reference compound]
IC50 [1, 22]: 64 ± 5 µM
CC50 [8]: 284 ± 21 µM

CC1(C)C[C@H]2[C@H]1CC[C@]1(C)ON=C(c3ccc(Cl)cc3)[C@H]1CC[C@@]21CC(c2ccc(Cl)cc2)=NO1 [Compound 25, (3aR,6R,6aS,8aR,10aS)-3,3′-Bis(4-chlorophenyl)-8,8,10a-trimethyl-3a,4,5,6a,7,8,8a,9,10,10a-decahydro-4′H-spiro[cyclobuta [5,6]cyclonona [1,2-d]isoxazole-6,5′-isoxazole]]
IC50 [1, 22]: 34.1 ± 4.4 µM
latest time of addition with virus-inhibiting activity [9]: ≤ 6 hpi
IC50 [2]: 50 to 100 µM
toxicity to DU145 ([2]; initial testing): harmful
IC50 [3]: 50 to 100 µM
toxicity to A549 ([3]; initial testing): harmful
IC50 at 72 h [4]: > 50 µM
IC50 at 72 h [5]: > 50 µM
IC50 [10]: > 50 µM
IC50 HCT116 [10]: did not show any cytotoxic effects
IC50 [11]: > 50 µM
IC50 [12]: > 50 µM
IC50 [13]: > 50 µM
IC50 [14]: > 50 µM
IC50 SK-MEL-28 [14]: did not show any cytotoxic effects
IC50 [15]: > 50 µM
IC50 [16]: > 50 µM
IC50 [17]: > 50 µM
CC50 at 48 h [7]: 426 ± 26.9 µM

NC(=O)c1ncn([C@@H]2O[C@H](CO)[C@@H](O)[C@H]2O)n1 [Ribavirin, reference compound]
IC50 [1, 22]: 25 µM
CC50 [8]: > 2000 µM

COc1cccc(OC)c1C1=NN(c2c(Cl)cc(Cl)cc2Cl)[C@]2(CC/C=C(\C)CC[C@@H]3[C@@H]2CC3(C)C)C1 [Compound 23a, (1S,2R,9R,E)-5′-(2,6-Dimethoxyphenyl)-6,10,10-trimethyl-2′-(2,4,6-trichlorophenyl)-2′,4′-dihydrospiro[bicyclo [7.2.0]undecane-2,3′-pyrazol]-5-ene]
IC50 [1, 22]: > 5.59 µM
IC50 [2]: < 50 µM
IC50 [3]: < 50 µM
IC50 at 72 h [4]: < 50 µM
IC50 at 72 h [5]: < 50 µM
toxicity against EMT6 ([18]; initial testing): extremely toxic
cytotoxicity EMT6 [18]: + *
IC50 [6]: < 50 µM
IC50 [10]: > 50 µM
IC50 HCT116 [10]: did not show any cytotoxic effects
IC50 [11]: 45 ± 1.9 µM
IC50 [12]: > 50 µM
IC50 [13]: > 50 µM
IC50 [14]: > 50 µM
IC50 SK-MEL-28 [14]: did not show any cytotoxic effects
IC50 [15]: 33.4 ± 2.2 µM
IC50 [16]: 28.8 ± 1.2 µM
IC50 [17]: 39.2 ± 3 µM
CC50 at 48 h [7]: 10.2 ± 0.8 µM

CC(N)C1C[C@@H]2CC[C@H]1C2 (stereo partly shown) [Deitiforin, reference compound]
CC50 [8]: 1270 ± 82 µM

CC1=CCCC2(CC(C)=NN2c2ccccc2)C2CC(C)(C)C2CC1 [Compound 21a, (1S,2R,9R,E)-5′,6,10,10-Tetramethyl-2′-phenyl-2′,4′-dihydrospiro[bicyclo [7.2.0]undecane-2,3′-pyrazol]-5-ene]
IC50 [1, 22]: 6.25 ± 0.7 µM
cytotoxicity DU145 [2]: + *
cytotoxicity A549 [3]: + *
cytotoxicity VA-13 [19]: + *
cytotoxicity HEK293 [20]: + *
cytotoxicity EMT6 [18]: + *
toxicity to all cells [6]: extremely toxic, killing all cells within 48 h
IC50 [10]: 22.4 ± 0.8 µM
IC50 [11]: 39.4 ± 2.1 µM
IC50 [12]: > 50 µM
IC50 [13]: 12.3 ± 1 µM
IC50 [14]: 24.9 ± 1.3 µM
IC50 [15]: 21.2 ± 0.9 µM
IC50 [16]: 18.8 ± 0.4 µM
IC50 [17]: 14.2 ± 0.9 µM
IC50 [21]: 12.3 to 39.4 µM
CC50 at 48 h [7]: 28 ± 1.9 µM

COc1ccc(C2=NO[C@]3(CC/C=C(\C)CC[C@@H]4[C@@H]3CC4(C)C)C2)cc1 [Compound 17a, (1S,2R,9R,E)-3′-(4-Methoxyphenyl)-6,10,10-trimethyl-4′H-spiro[bicyclo [7.2.0]undecane-2,5′-isoxazol]-5-ene]
IC50 [1, 22]: 8.03 ± 1.1 µM
cytotoxicity DU145 [2]: + *
cytotoxicity A549 [3]: + *
cytotoxicity VA-13 [19]: + *
cytotoxicity HEK293 [20]: + *
cytotoxicity EMT6 [18]: + *
toxicity to all cells [6]: extremely toxic, killing all cells within 48 h
IC50 [10]: 39.4 ± 2.8 µM
IC50 [11]: 47.1 ± 3 µM
IC50 [12]: > 50 µM
IC50 [13]: 36.5 ± 3.2 µM
IC50 [14]: 38.9 ± 3.9 µM
IC50 [15]: 30.7 ± 2.1 µM
IC50 [16]: 42.6 ± 3.4 µM
IC50 [17]: 44.3 ± 4.1 µM
CC50 at 48 h [7]: 37 ± 2.2 µM

CC(N)C12CC3CC(CC(C3)C1)C2 (stereo not shown) [Rimantadine, reference compound]
IC50 ([1]; H1N1, MDCK, 48 h): 67 ± 4.9 µM
CC50 [8]: 335 ± 27 µM
